Measurements from patent US8188055B2, “Inactivators of O6-alkylguanine-DNA alkyltransferase” (The United States of America, as represented by the …, priority 2007, dated 2012).
Read-outs that look alike come from different tables or passages of the source.

Assays:
human alkyltransferase [1] = biological target: T1, human alkyltransferase (Homo sapiens, UniProt P16455); experiment: Inactivation of purified recombinant human alkyltransferase in vitro; format: biochemical; settings: for inactivation of alkyltransferase compared with parent compound: comparison in words
T1 sequence (P16455 1-207): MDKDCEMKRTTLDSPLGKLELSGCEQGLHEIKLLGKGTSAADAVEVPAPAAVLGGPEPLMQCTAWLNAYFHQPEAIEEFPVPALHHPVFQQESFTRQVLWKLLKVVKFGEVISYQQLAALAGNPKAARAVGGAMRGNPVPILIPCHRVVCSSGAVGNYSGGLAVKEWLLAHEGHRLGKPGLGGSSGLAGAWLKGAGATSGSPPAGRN
Experimental: ED50 values for the inactivation of purified human alkyltransferase in vitro are obtained as previously described (Nelson et al., J. Med. Chem. 2004, 47, 3887-3891 and Pegg et al., Biochem. Pharmacol. 1997, 53, 1559-1564). Purified recombinant human alkyltransferase is incubated with different concentrations of prodrugs in 0.5 mL of reaction buffer (50 mM Tris-HCl, pH 7.6, 0.1 mM EDTA, 5.0 mM dithiothreitol) containing 50 μg of hemocyanin or 10 μg calf thymus DNA for 30 min at 37° C.

[2] = Release of folate on incubation in neutral solution (ester stability); format: physicochemical; settings: incubated in neutral solution
[3] = test system: human tumor cell extracts; experiment: Release of folate from esters by human tumor cell extracts; format: in vitro ADME; settings: 200 μM ester, 2 mg lysate protein, pH 7.4, 37° C
Experimental: Cells are trypsinized, washed with Hank's balanced salt solution, counted and pelleted. On ice, the cell pellets are resuspended in 50 mM sodium phosphate, 5 mM DTT, pH 7.4 at a concentration of 10^8 cells/ml and disrupted by sonication. The sonicated cells are centrifuged at 12,000×g for 10 min and the supernatant is removed. Complete mini protease inhibitor (Roche, Mannheim Germany) is added as directed by the supplier. Lysate total protein concentration is determined, and the lysates are frozen until used at −20° C. Reactions (600 μL), containing one of the ester substrates (200 μM) and 2 mg of lysate protein in 50 mM phosphate buffer (pH 7.4) are incubated at 37° C. At various times 50 μL, are removed for analysis by HPLC. The amount of folic acid liberated is used to determine the extent of ester hydrolysis.
The rate of release of folate is about 2.2% per day from 1; 3.2% per day from 2; and 0.9% per day from 3. […] The extent of conversion to folate by human tumor cell extracts can vary slightly according to the cell type with MCF-7 cells showing the highest rate of conversion.

HT29 cells = experiment: Sensitization of HT29 cells to killing by BCNU, colony-forming assay; format: cell-based; settings: RPMI medium, drug 2 h prior to 40 μM BCNU for 2 h
Experimental: KB, HT29 and A549 cells are grown in RPMI 1640 medium or in RPMI medium lacking folate in the presence of 10% fetal bovine serum. The effect of alkyltransferase inactivators on the sensitivity of cells to BCNU is determined using a colony-forming assay (Wei et al., J. Med. Chem. 2005, 48, 256-261; Nelson et al., J. Med. Chem. 2004, 47, 3887-3891; Chae et al., J. Med. Chem. 1994, 37, 342-347; and Dolan et al., Proc. Natl. Acad. Sci. U.S.A. 1990, 87, 5368-5372). Cells are plated at a density of 10^6 in 25 cm^2 flasks and 24 h later are incubated with different concentrations of potential inhibitors for 2-8 h as indicated before exposure to 20 or 40 μM BCNU for 2 h as previously described (Wei et al., J. Med. Chem. 2005, 48, 256-261; Nelson et al., J. Med. Chem. 2004, 47, 3887-3891). After 2 h, the medium is replaced with fresh medium containing the drug but no BCNU and the cells are left to grow for an additional 16-18 h. The cells are then replated at densities of 250-1000 cells per 25 cm^2 flask and grown for 8 days until discrete colonies have formed. The colonies are washed with 0.9% saline solution, stained with 0.5% crystal violet in ethanol, and counted.

human alkyltransferase [4] = biological target: T1, human alkyltransferase; settings: previously published, read-out: ED50 for inactivation of alkyltransferase, cited from earlier work
[5] = +DNA (10 μg calf thymus DNA), 30 min at 37° C, read-out: ED50 for inactivation of alkyltransferase
[6] = absence of DNA, read-out: ED50 value in the absence of DNA

EC50 (human alkyltransferase [1]; [5]) [nM] | EC50 (human alkyltransferase [1]; −DNA (hemocyanin), 30 min at 37° C, read-out: ED50 for inactivation of alkyltransferase) [nM] | rate of release of folate [2] | release of folate by extracts from human tumor cells [3] | increase of ED50 when DNA is present (human alkyltransferase [1]; +DNA versus −DNA) [fold] | EC50 (human alkyltransferase [1]; [6]) [nM] | ED50 lower than O^6-benzylguanine (human alkyltransferase [1]; absence of DNA) [times] | ED50 lower than the parent O^6-benzyl-2′-deoxyguanosine (human alkyltransferase [1]; absence of DNA) [times] | SMILES | inactivation of alkyltransferase compared with parent compound (human alkyltransferase [1]) | sensitization of HT29 cells to killing by BCNU (HT29 cells) | EC50 (human alkyltransferase [4]; +DNA) [µM] | EC50 (human alkyltransferase [4]; −DNA) [µM]
240 | 700 | ~0.9 % per day | able to release folate |  |  |  |  | Nc1nc(OCc2ccc(COC(=O)CC[C@H](NC(=O)c3ccc(NCc4cnc5nc(N)[nH]c(=O)c5n4)cc3)C(=O)O)cc2)c2nc[nH]c2n1 [Compound 3, O^6-[4-[(γ-folyl)-oxymethyl]benzyl]guanine] | slightly less effective than the free base parent |  |  | 
3060 ± 180 |  | ~3.2 % per day | able to release folate | 5 | 640 |  |  | Nc1nc(OCc2ccccc2)c2ncn([C@H]3CC(O)[C@@H](COC(=O)CC[C@H](NC(=O)c4ccc(NCc5cnc6nc(N)[nH]c(=O)c6n5)cc4)C(=O)O)O3)c2n1 (stereo partly shown) [Compound 2, O^6-Benzyl-5′-O-[γ-folyl]-2′-deoxyguanosine] | more active than O^6-benzyl-2′-deoxyguanosine itself | able to sensitize HT29 cells to killing by BCNU |  | 
 |  |  |  |  |  |  |  | Nc1nc(OCc2ccccc2)c2ncn([C@H]3C[C@H](O)[C@@H](CO)O3)c2n1 [O^6-benzyl-2′-deoxyguanosine] |  |  | 40 | 2
680 |  | about 2.2 % per day | able to release folate |  | 16 | 10 | 100 | Nc1nc(OCc2ccccc2)c2ncn([C@H]3CC(OC(=O)CC[C@H](NC(=O)c4ccc(NCc5cnc6nc(N)[nH]c(=O)c6n5)cc4)C(=O)O)[C@@H](CO)O3)c2n1 (stereo partly shown) [Compound 1, O^6-Benzyl-3′-O-[γ-folyl]-2′-deoxyguanosine] | more active than O^6-benzyl-2′-deoxyguanosine itself | able to sensitize HT29 cells to killing by BCNU |  | 
